# From US5041567A, “Antibacterial monic acid derivatives” (Beecham Group plc, priority 1982, dated 1991)
# Read-outs that look alike come from different tables or passages of the source.
# Key:
# E. coli E1 = assay: MIC against veterinary bacteria in vitro; conditions: Escherichia coli, E1, 18 h
# Experimental: (§1) The activity of the compounds of the Examples against various veterinarily important bacteria, was assayed in vitro using two-fold serial dilutions in Diagnostic Sensitivity Test Agar inoculated with 10^4 organisms.
# M. suipneumoniae Str. 11 = assay: MIC against mycoplasma in vitro; format: cell-based; conditions: Mesomycoplasma hyopneumoniae
# [1] = test system: Haemophilus influenzae Q1; assay: MIC against human bacteria in vitro; format: cell-based
# [2] = test system: M. bovigenitalium ATCC 14173; assay: MIC against mycoplasma in vitro; format: cell-based; conditions: 144 h
# Strep. faecalis I = assay: MIC against human bacteria in vitro; format: cell-based; conditions: Enterococcus faecalis
# [3] = test system: Strep. pyogenes R80/421-A; assay: MIC against human bacteria in vitro; format: cell-based; conditions: Streptococcus pyogenes; Strep. pyogenes R80/421-A; 5% chocolated horse blood agar, 18 hours; read-out: MIC
# M. suipneumoniae MS 16 = assay: MIC against mycoplasma in vitro; format: cell-based; conditions: Mesomycoplasma hyopneumoniae, MS16, 144 h
# E. coli NCTC 10418 [4] = assay: MIC against veterinary bacteria in vitro; conditions: Escherichia coli, NCTC10418, 18 h
# Experimental: as §1
# P. mirabilis 889 = assay: MIC against human bacteria in vitro; format: cell-based
# Strep. uberis SPU1 = assay: MIC against veterinary bacteria in vitro; conditions: Streptococcus uberis, SPU1, 18 h
# Experimental: as §1
# S. typhimurium S18 = assay: MIC against veterinary bacteria in vitro; conditions: Salmonella enterica, TYPHIMURIUM, 18 h
# Experimental: as §1
# [5] = test system: Ps. aeruginosa NCTC 10662; assay: MIC against human bacteria in vitro; format: cell-based; conditions: Pseudomonas aeruginosa
# Strep. dysgalactiae SPD1 = assay: MIC against veterinary bacteria in vitro; conditions: Streptococcus dysgalactiae, SPD1, 18 h
# Experimental: as §1
# M. suipneumoniae NB12 = assay: MIC against mycoplasma in vitro; format: cell-based; conditions: Mesomycoplasma hyopneumoniae
# Bord. bronchiseptica B09 = assay: MIC against veterinary bacteria in vitro; conditions: Bordetella bronchiseptica, B09, 18 h
# Experimental: as §1
# E. coli NCTC 10418 [6] = assay: MIC against human bacteria in vitro; format: cell-based; conditions: Escherichia coli
# [7] = test system: Neisseria catarrhalis 1502; assay: MIC against human bacteria in vitro; format: cell-based; conditions: Neisseria catarrhalis 1502; 5% chocolated horse blood agar, 18 hours; read-out: MIC
# M. gallisepticum S6 = assay: MIC against mycoplasma in vitro; format: cell-based; conditions: Mycoplasmoides gallisepticum
# Strep. spp. 64/848-C = assay: MIC against human bacteria in vitro; format: cell-based
# M. suipneumoniae TAM 6N = assay: MIC against mycoplasma in vitro; format: cell-based; conditions: Mesomycoplasma hyopneumoniae, TAM6N, 144 h
# [8] = test system: Staph. aureus 152 (pen. sens); assay: MIC against veterinary bacteria in vitro; conditions: Staphylococcus aureus, 18 h
# Experimental: as §1
# K. aerogenes A = assay: MIC against human bacteria in vitro; format: cell-based; conditions: Klebsiella aerogenes
# M. bovis NCTC 10131 = assay: microbe, parasite or virus in culture; format: cell-based; conditions: NCTC10131, 144 h
# [9] = Haemophilus influenzae, Q1, 18 h
# [10] = Strep. faecalis I, 5% chocolated horse blood agar, 18 hours, read-out: MIC
# [11] = Proteus mirabilis, P. mirabilis 889, 5% chocolated horse blood agar, 18 hours, read-out: MIC
# [12] = NCTC10662, Ps. aeruginosa NCTC 10662, 5% chocolated horse blood agar, 18 hours, read-out: MIC
# [13] = NCTC10418, E. coli NCTC 10418, agar with 5% chocolated horse blood, 18 hours, 37° C., read-out: MIC
# [14] = Strep. spp. 64/848-C, 5% chocolated horse blood agar, 18 hours, read-out: MIC
# [15] = K. aerogenes A, 5% chocolated horse blood agar, 18 hours, read-out: MIC
# [16] = 144 h, M. suipneumoniae Str. 11, 6 days, 37° C., read-out: MIC
# [17] = Haemophilus influenzae Q1, 5% chocolated horse blood agar, 18 hours, read-out: MIC
# [18] = M. bovigenitalium ATCC 14173, 6 days, 37° C., read-out: MIC
# [19] = M. suipneumoniae MS 16, 6 days, 37° C., read-out: MIC
# [20] = 144 h, M. suipneumoniae NB12, Friis broth, 0.9% agarose, 6 days, 37° C., read-out: MIC
# [21] = 144 h, M. gallisepticum S6, 6 days, 37° C., read-out: MIC
# [22] = M. suipneumoniae TAM 6N, 6 days, 37° C., read-out: MIC
SMILES,MIC (E. coli E1) [µg/mL],MIC [3] [µg/mL],MIC (E. coli NCTC 10418 [4]) [µg/mL],MIC (Strep. uberis SPU1) [µg/mL],MIC (S. typhimurium S18) [µg/mL],MIC (Strep. dysgalactiae SPD1) [µg/mL],MIC (Bord. bronchiseptica B09) [µg/mL],MIC [7] [µg/mL],MIC [8] [µg/mL],MIC (M. bovis NCTC 10131) [µg/mL],MIC (Strep. faecalis I; [10]) [µg/mL],"MIC [5, 12] [µg/mL]",MIC (Strep. spp. 64/848-C; [14]) [µg/mL],MIC (K. aerogenes A; [15]) [µg/mL],MIC (M. suipneumoniae Str. 11; [16]) [µg/mL],"MIC [1, 17] [µg/mL]",MIC (M. suipneumoniae MS 16; [19]) [µg/mL],MIC (M. suipneumoniae NB12; [20]) [µg/mL],MIC (M. gallisepticum S6; [21]) [µg/mL],MIC (M. suipneumoniae TAM 6N; [22]) [µg/mL],further results
"CSc1ccc(-c2cnc(/C=C(\C)C[C@@H]3OC[C@H](C[C@@H]4O[C@H]4[C@@H](C)[C@H](C)O)[C@@H](O)[C@H]3O)o2)cc1 [Example 9, 5-p-methylthiophenyl-2-(1-normon-2-yl)oxazole A]",> 80,10,> 80,0.16,> 80,0.625,40,10,0.625,0.05,–,–,–,–,–,–,–,–,–,–,"MIC (M. suipneumoniae Str. 11; STR.11, 144 h): 0.5 µg/mL; MIC [1, 9]: 5 µg/mL; MIC [2]: 0.1 µg/mL; MIC (Strep. faecalis I; 18 h): > 100 µg/mL; MIC (M. suipneumoniae MS 16): 0.5 µg/mL; MIC (P. mirabilis 889; Proteus mirabilis, 889, 18 h): > 100 µg/mL; MIC ([5]; NCTC10662, 18 h): > 100 µg/mL; MIC (M. suipneumoniae NB12; NB12, 144 h): 0.5 µg/mL; MIC (E. coli NCTC 10418 [6]; NCTC10418, 18 h): > 100 µg/mL; MIC (M. gallisepticum S6; S6, 144 h): 1 µg/mL; MIC (Strep. spp. 64/848-C; 18 h): 5 µg/mL; MIC (M. suipneumoniae TAM 6N): 0.5 µg/mL; MIC (K. aerogenes A; 18 h): > 100 µg/mL"
C/C(=C\c1ncc(-c2ccc(S(C)(=O)=O)cc2)o1)C[C@@H]1OC[C@H](C[C@@H]2O[C@H]2[C@@H](C)[C@H](C)O)[C@@H](O)[C@H]1O [Example 10],> 80,8,> 80,0.625,> 80,2.5,40,8,2.5,0.01,> 128,> 128,4,> 128,–,–,–,–,–,–,"MIC (M. suipneumoniae Str. 11; STR.11, 144 h): 0.025 µg/mL; MIC [1, 9]: 1 µg/mL; MIC [2]: 0.025 µg/mL; MIC (M. suipneumoniae MS 16): 0.025 µg/mL; MIC (P. mirabilis 889; [11]): > 128 µg/mL; MIC (M. suipneumoniae NB12; NB12, 144 h): 0.05 µg/mL; MIC (E. coli NCTC 10418 [6]; [13]): > 128 µg/mL; MIC (M. gallisepticum S6; S6, 144 h): 0.1 µg/mL; MIC (M. suipneumoniae TAM 6N): 0.05 µg/mL"
"C/C(=C\c1ncc(-c2ccc([S+](C)[O-])cc2)o1)C[C@@H]1OC[C@H](C[C@@H]2O[C@H]2[C@@H](C)[C@H](C)O)[C@@H](O)[C@H]1O (some centres unmarked) [Example 11, 5-p-Methylsulphinylphenyl-2-(1-normon-2-yl) oxazole A]",> 80,4,> 80,0.312,> 80,1.25,40,8,2.5,≤ 0.01,> 128,> 128,2,> 128,0.1,2,0.1,0.1,0.5,0.5,"MIC [2, 18]: 0.1 µg/mL; MIC (P. mirabilis 889; [11]): > 128 µg/mL; MIC (E. coli NCTC 10418 [6]; [13]): > 128 µg/mL"
"C/C(=C\c1ncc(CCCCCCCC(=O)O)o1)C[C@@H]1OC[C@H](C[C@@H]2O[C@H]2[C@@H](C)[C@H](C)O)[C@@H](O)[C@H]1O [Example 12, Sodium 8-[2-(1-normon-2-yl)-5-oxazolyl]-octanoate A]",> 40,16,> 40,0.625,> 40,0.625,20,16,0.625,0.05,> 16,> 16,4,> 16,10,1,10,> 10,> 10,> 10,"MIC [2, 18]: 1 µg/mL; MIC (P. mirabilis 889; [11]): > 16 µg/mL; MIC (E. coli NCTC 10418 [6]; [13]): > 16 µg/mL"
"C/C(=C\c1ncc(-c2ccc(CO)cc2)o1)C[C@@H]1OC[C@H](C[C@@H]2O[C@H]2[C@@H](C)[C@H](C)O)[C@@H](O)[C@H]1O [Example 13, 5-p-Hydroxymethylphenyl-2-(1-normon-2-yl) oxazole A]",> 80,4,> 80,0.312,> 80,0.625,20,4,1.25,≤ 0.01,> 128,> 128,–,> 128,0.1,0.5,0.1,0.1,0.5,0.25,MIC [2]: 0.025 µg/mL; MIC (P. mirabilis 889; [11]): > 128 µg/mL; MIC (E. coli NCTC 10418 [6]; [13]): > 128 µg/mL; MIC (Strep. spp. 64/848-C; 18 h): 1 µg/mL
"C/C(=C\c1ncc(-c2ccccc2)s1)C[C@@H]1OC[C@H](C[C@@H]2O[C@H]2[C@@H](C)[C@H](C)O)[C@@H](O)[C@H]1O [Example 29, 2-(1-Normon-2-yl)-5-phenylthiazole A]",> 80,50,> 80,5,> 80,20,> 80,50,10,0.5,> 100,> 100,25,> 100,10,50,10,10,> 10,> 10,"MIC [2]: 1 µg/mL; MIC (P. mirabilis 889; Proteus mirabilis, 889, 18 h): > 100 µg/mL; MIC (E. coli NCTC 10418 [6]; NCTC10418, 18 h): > 100 µg/mL"
"C/C(=C\c1nc(-c2ccccc2)c(-c2ccccc2)o1)C[C@@H]1OC[C@H](C[C@@H]2O[C@H]2[C@@H](C)[C@H](C)O)[C@@H](O)[C@H]1O [Example 41, 4,5-Diphenyl-2-(1-normon-2-yl)oxazole A]",> 80,> 100,> 80,10,> 80,20,> 80,25,40,2.5,> 100,> 100,100,> 100,> 10,10,> 10,> 10,> 10,> 10,"MIC [2, 18]: 5 µg/mL; MIC (P. mirabilis 889; Proteus mirabilis, 889, 18 h): > 100 µg/mL; MIC (E. coli NCTC 10418 [6]; NCTC10418, 18 h): > 100 µg/mL"
